Results reported in ChEMBL document CHEMBL1142731, “Concentration and pH dependent aggregation of hydrophobic drug molecules and relevance to oral bioavailability” (J Med Chem, 2005).

What was measured:
[1] = pKa value was determined; assay type: physicochemical
[2] = Area under the concentration time curve in rat after 40 mg/kg oral dosage; assay type: ADME, organism-based; set-up: dose 40 mg/kg, route oral; unit not given here; conditions: in vivo
[3] = Area under the concentration time curve in human after 100 mg/kg oral dosage; assay type: ADME, organism-based; set-up: dose 100 mg/kg, route oral; unit not given here; conditions: in vivo

pKa [1] | AUC [2] | AUC [3] | SMILES
2.5 | 0.1 | 0.1 | N#Cc1ccc(Nc2nc(Cc3c(Cl)cccc3Cl)nc(NO)n2)cc1
3.8 |  |  | Cc1cc(C)c(Nc2nc(N)nc(Nc3ccc(C#N)cc3)n2)c(C)c1
2.8 | 4.4 |  | N#Cc1ccc(Nc2nc(N)nc(Cc3c(Cl)ccc(Cl)c3Cl)n2)cc1
3.6 |  |  | Cc1cc(C)c(Nc2nc(Nc3ccc(C#N)cc3)ncc2Cl)c(C)c1
3.5 |  |  | Cc1cc(C#N)cc(C)c1Oc1nc(Nc2ccc(C#N)cc2)nc(N)c1Br [ETRAVIRINE]
2.6 |  |  | Cc1cc(C)c(Nc2ncnc(Nc3ccc(C#N)cc3)n2)c(C)c1
1.9 | 0.6 |  | N#Cc1ccc(Nc2nc(N)nc(Oc3c(Cl)cccc3Cl)n2)cc1
3.1 | 1.5 |  | N#Cc1ccc(Nc2nc(N)nc(Cc3c(Cl)cccc3Cl)n2)cc1
2 | 0.6 |  | Cc1cc(C#N)cc(C)c1Oc1nc(Nc2ccc(C#N)cc2)nc(CO)c1Br
3.3 | 67.5 |  | N#Cc1ccc(Nc2nc(N)nc(Cc3c(Cl)ccc4[nH]ccc34)n2)cc1
5.1 | 49.3 | 8.2 | Cc1cc(C#N)cc(C)c1Nc1ccnc(Nc2ccc(C#N)cc2)n1
2.7 |  |  | Cc1cc(C#N)cc(C)c1Oc1nc(Nc2ccc(C#N)cc2)ncc1Br
 | 7.3 |  | N#Cc1ccc(Nc2nc(N)cc(Cc3c(Cl)cccc3Cl)n2)cc1
